Experimental data from US10058587B2, “Peptide composition for cancer treatment by inhibiting TRPV6 calcium channel activity” (priority 2008, dated 2018).
“Also recorded” adds a separate entry of the source. Where no end group is shown, it is not given here.

Tests used:
[1] = tested on: MCF 7 breast cancer cell line; test: Induction of apoptosis (APO-ONE caspase 3/7) and cell viability (CellTiter Blue); format: cell-based, human; parameters: key: decreased (+); or not (−); settings: SorC27
Experimental: (§1) MCF-7, MDA-MB-231, MDA-MB-415, MDA-MB-468 were grown in DMEM modified with 10% (v/v) fetal bovine serum, 2 mM L-glutamine and 50 ug/mL each of penicillin and streptomycin.
(§2) The levels of apoptotic induction and cell viability were determined by multiplexing the measurements for single samples. CellTiter Blue and APO-ONE assay systems from Promega allows the determination of cell viability correlated to cell number, and induction of apoptosis. This protocol uses a fluorgenic peptide that contains a peptide recognition-sequence for caspase 3 and caspase 7, […] proteolytic enzymes of the apoptosis cascade. The CellTiter Blue reagent was added to wells in a 96-well plate containing cells under test, immediately after addition of peptide solution or vehicle. About 5000 cells were plated into the wells the day before. At the chosen time (Day 1, Day 2 etc.) the fluorescence was measured at 590 nm (emission) after excitation at 560 nm. The caspase 3/7 activity was measured (485 nm Ex/527 nm Em) in the same wells after adding 120 uL of the Apo-ONE reagent, freeze fracturing at −80° C. for 1 hr, and incubating for 1 hr at room temperature.
(§3) For this work, the concentrations of SorC13 and SorC27 used were 0 uM, 1 uM, 10 uM and 100 uM. The experiments extended over a 5 to 7 day period. […]

[2] = Clearance route in iv mice; settings: i.v.
[3] = Repeated dose toxicity study; format: in vivo, NOD/SCID mice
Experimental: In order to investigate repeated dose toxicity, SorC27 at 400 mg/kg formulated in saline was injected (i.p.) into NOD/SCID mice every day for 12 days. The animals were observed cage-side each day and examined at the end of the experimental period.

[4] = Single dose acute intravenous bolus toxicity study with 5-day observation; format: in vivo, CD-1 mice
Experimental: A single dose acute intravenous bolus injection toxicity study followed by a 5-day observation period in CD-1 mice was performed as described below. Three doses of each of SorC13 and SorC27 were used (10, 100 and 500 mg/Kg). Daily cage-side exams for 5 days with hourly exams for the first 4 hrs post injection. As part of the analysis the following assessments were made: body weights prior to dosing and at termination; all animals were necropsied (including preparation of bone marrow smears); organ weights were taken of all animals.
After in vivo i.v. injection into CD1 mice, SorC13 caused a small spike (approximately 25%) in blood pressure in the first 15 min which disappeared by 1 hour.

[5] = Storage stability of solid and aqueous solution; format: physicochemical
Experimental: Additionally, the peptides have greater shelf-life stability and solution stability due to the presence of fewer sensitive disulfide bonds (soricidin has 3 disulfide bonds). The peptides of the invention optionally have no disulfide bonds. An absence of disulfide bonds provides a very long shelflife during storage under minimal refrigeration or at room temperature as a solid. Additionally when the peptides of the invention with no disulfide bonds are dissolved in water, cleavage of disulfide bonds cannot occur. […] The formation of inter-peptide S—S bonds also results in precipitation of soricidin. The peptides of the invention, such as SorC13 and SorC27, are typically stable in aqueous solution at 8° C. for at least 3 weeks with no change in purity as measured by HPLC.
“Very stable” in the above table means that there was no observable degradation of the solid peptides over 6 months. As a solution in sterile water, the peptides are typically stable for at least 3 weeks at 8° C. and at −20° C., are expected to be stable more than 1 year.

[6] = tested on: MDA-MB-468 (MB 468) breast cancer cell line; test: Induction of apoptosis (APO-ONE caspase 3/7) and cell viability (CellTiter Blue); format: cell-based, human; parameters: key: decreased (+); or not (−); settings: SorC27
Experimental: as §1, §2, §3

[7] = tested on: MDA-MB-468 (MB 468) breast cancer cell line; test: as above; format: cell-based, human; parameters: key: cell viability decreased (+); or not (−)
Experimental: as §1, §2
For this work, the concentrations of SorC13 and SorC27 used were 0 uM, 1 uM, 10 uM and 100 uM. The experiments extended over a 5 to 7 day period. All measurements were done in quadruplicate with both a blank (no cells) and control (vehicle, no peptide) used to correct the test measurements. The time-response data, and the dose-response data were plotted as means±standard error of the mean. Any statistical comparisons were done with the Student's t-test or by ANOVA analysis over the dose course. The level of statistical significance was considered to be the 95% confidence interval (i.e., p≤0.05).

[8] = 400 mg/kg, daily i.p. injection for 12 days
[9] = single i.v. 10, 100 and 500 mg/kg

| Sequence | Decline in cell viability [1] | Clearance route in iv mice @ 5 mg/kg [2] | toxicity of multiple dose ([3]; 400 mg/kg i.p. each day for 12 days) | Repeated dose in NOD/SCID mice: body weight [3, 8] | Repeated dose in NOD/SCID mice: toxic effects [3, 8] | Maximum Tolerated Dose in CD-1 mice by single i.v. dose ([4]; 10, 100 and 500 mg/kg doses) | adverse events over 5-day post-injection observation period [4, 9] | necropsy changes in major organ systems [4, 9] | Stability in aqueous solution @ −20° C. [5] | Stability solid @ Room Temp. [5] | Stability solid @ −20° C. [5] | Decline in cell viability [6] | Decline in cell viability ([7]; SorC13 1 uM) | Decline in cell viability ([7]; SorC13 10 uM) | Decline in cell viability ([7]; SorC13 100 uM) |
| --- | --- | --- | --- | --- | --- | --- | --- | --- | --- | --- | --- | --- | --- | --- | --- |
| EGKLSSNDTEGGLCKEFLHPSKVDLPR [SorC27] | + | Rapid via kidney. | no indication of toxicity; also recorded: no toxic effect, weight loss or change in organs on necropsy | No loss of body weight | no toxic effects noted | No toxic effects | no adverse events | no significant changes in all major organ systems | Very stable | Very stable | Very stable | + | – | – | – |
| KEFLHPSKVDLPR [SorC13, KEFLHPSKVDLPR] | – | – | – | – | – | – | – | – | – | – | – | – | + | + | + |
